Like-named read-outs stand apart in the source and are kept apart here.
What was measured:
HEK cells = test: Transient transfection assay, NFAT-bla and CRE-bla HEK, response to LPA; format: cell-based, human; settings: 10 μM LPA
From the text: (§1) To begin development of a GPR23 assay in GeneBLAzer® CellSensor™ cell lines (Invitrogen), GPR23 was first tested in a transient transfection assay in the NFAT-bla HEK (Catalog# K1179, Invitrogen), the CRE-bla HEK (Catalog# K1112, Invitrogen), the NFAT-bla CHO-K1 (Catalog# K1078, Invitrogen), the CRE-bla CHO-K1 (Catalog# K1129, Invitrogen), the NFAT-bla Jurkat CellSensor™ cell lines (Catalog# K1077, Invitrogen) and the CRE-bla Jurkat CellSensor™ cell lines (Catalog# K1134, Invitrogen). The hGPR23 expression plasmid was transfected into the cell lines. Lipofectamine 2000 (Invitrogen) was used at a ratio of 0.4 ug of DNA per every uL of Lipofectamine 2000 following manufacturer's directions. After 48 hours the cells were assayed for a response to 10 μM LPA.

hGPR23 = test: LPA dose response on hGPR23-CRE-bla CHO-K1 selected pool; format: cell-based, human; settings: 5 hrs stimulation
From the text: An attempt was made to develop a GPR23 assay by stably expressing a human GPR23 (hGPR23) in a CRE-bla CHO-K1 cell line. The CRE-bla CHO-K1 cell line has a non-GPR23 specific endogenous response to LPA (see Example 18), but by adding the human GPR23 to the cells it could have been possible to increase the LPA responsiveness of these cells or create a constitutively active cell line that could be used to screen for inverse agonists of the hGPR23 receptor. The hGPR23 expression plasmid was transfected into the CRE-bla CHO-K1 cell line. Lipofectamine 2000 (Invitrogen) was used at a ratio of 0.4 ug of DNA per every uL of Lipofectamine 2000 following manufacturer's directions.
(§2) A stable pool was selected using Zeocin. LPA dose response on the hGPR23-CRE-bla CHO-K1 selected pool and CRE-bla CHO-K1 cell line was performed. The cells were plated at 50,000 cells per well in a 96 well assay plate in OptiMEM+0.5% FBS and placed at 37° C. 5% CO2 overnight. The cells were then stimulated with a four fold dilution series of LPA in DMEM+0.1% BSA for 5 hrs. and loaded with substrate for 2 hrs.

GPR23 [1] = test: LPA responsiveness of T-REx-GPR23 CRE-bla-CHO-K1 clone H6-E2; format: cell-based, human; settings: un-induced cells
Description: (§3) The cells were plated at 20,000 cells per well in a 384 well black walled clear bottom tissue culture assay plate in complete media (DMEM+10% FBS). The plates were then placed at 37° C. 5% CO2 for 6 hrs to allow the cells to attach to the assay plate. The complete media was then removed from the plate and replaced with assay media (DMEM+0.1% BSA) containing 100 ng/ml pertussis toxin and 0.5% DMSO, with or without 10 μg/ml doxycycline. The plates were placed at 37° C. 5% CO2 for 16 hrs to allow the induced expression of the GPR23 receptor. The cells were then stimulated for five hours with a four fold dilution series of LPA starting at 1 μM. The cells were then loaded with LiveBLAzer™-FRET B/G substrate (2 μM) containing solution D for 2 hrs.

Jurkat cells = test: Transient transfection assay, NFAT-bla and CRE-bla Jurkat, response to LPA; format: cell-based; settings: 10 μM LPA
From the text: as §1

CRE-bla CHO-K1 cell line = test: LPA dose response on CRE-bla CHO-K1 cell line; format: cell-based, Chinese hamster; settings: CRE-bla CHO cells; 5 hrs stimulation
Description: as §2

GPR23 [2] = molecular target: T1, GPR23 (Homo sapiens, UniProt Q99677); test: LPA responsiveness of T-REx-GPR23 CRE-bla-CHO-K1 clone H6-E2; format: cell-based; design: expressed in transfected cells; host or cells: CHO-K1 with tet repressor (T-REx); clones E1 and H6, later CRE-bla subclone H6-E2
Description: as §3

GPR23 [3] = molecular target: T1, GPR23; test: LPA response of stably transfected GPR23-CRE-bla HEK pool; format: cell-based; design: expressed in transfected cells; host or cells: CellSensor CRE-bla HEK (Invitrogen K1112), stably selected pool
Description: Assay construction continued in the NFAT-bla and CRE-bla, HEK and Jurkat CellSensor™ cell lines. These cell lines were taken to the point of stably selected pools at which point they were tested for a response to LPA. Only the stably transfected GPR23-CRE-bla HEK pool gave a response to LPA. The response was <1.5 fold but reproducible.

GPR23 [4] = test: Perkin Elmer LANCE cAMP assay on T-REx-GPR23-CHO-K1 clones; format: cell-based, human; settings: un-induced, read-out: LPA EC50 (cAMP)
Description: (§4) Two inducible T-RExTM-GPR23-CHO-K1 clones and a parental control (T-RExTM-CHO-K1) were tested using the Perkin Elmer LANCE cAMP assay. The cells were serum starved and induced in growth medium +/-1 μg/ml tetracycline +100 ng/ml pertussis toxin without FBS for 24 hrs prior to the assay. The cells were then harvested using […] assayed for LPA responsiveness using the Perkin Elmer Lance assay according to the manufacture's instructions.

T-REx™-CHO-K1 = test: Perkin Elmer LANCE cAMP assay on parental T-REx-CHO-K1; format: cell-based, Chinese hamster; settings: read-out: LPA EC50 (cAMP)
Description: as §4

[5] = test system: NFAT and CRE CHO-K1 cell lines; test: Transient transfection assay, NFAT-bla and CRE-bla CHO-K1, response to LPA; format: cell-based, Chinese hamster; settings: 10 μM LPA; absence of transfected GPR23
From the text: as §1

GPR23 [6] = molecular target: T1, GPR23; test: Perkin Elmer LANCE cAMP assay on T-REx-GPR23-CHO-K1 clones; format: cell-based; design: expressed in transfected cells; host or cells: CHO-K1 with tet repressor (T-REx); clones E1 and H6, later CRE-bla subclone H6-E2; settings: read-out: LPA EC50 (cAMP)
Description: as §4

T1 sequence (Q99677 whole entry): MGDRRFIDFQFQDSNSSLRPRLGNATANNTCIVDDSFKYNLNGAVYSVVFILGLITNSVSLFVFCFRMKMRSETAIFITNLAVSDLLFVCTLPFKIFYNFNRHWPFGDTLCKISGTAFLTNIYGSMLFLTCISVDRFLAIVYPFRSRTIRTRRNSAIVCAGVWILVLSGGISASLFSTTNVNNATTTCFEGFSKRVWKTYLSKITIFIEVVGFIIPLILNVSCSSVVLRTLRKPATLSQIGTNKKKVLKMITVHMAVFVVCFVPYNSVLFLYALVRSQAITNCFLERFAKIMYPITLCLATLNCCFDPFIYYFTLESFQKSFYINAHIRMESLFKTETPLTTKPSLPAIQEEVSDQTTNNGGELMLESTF

1 or 2-acyl-sn-glycero-3-phosphate [LPA]
response to LPA (HEK cells; GPR23 transfected CRE-bla HEK cell line): only a small response | response to LPA (HEK cells; endogenous (untransfected)): no endogenous response | EC50 (hGPR23): 258 nM | response of the cells to LPA (GPR23 [1]): 9 fold | response to LPA (Jurkat cells; GPR23 transfected cells): no response | response to LPA (Jurkat cells; endogenous (untransfected)): no endogenous response | EC50 (CRE-bla CHO-K1 cell line): 239 nM | response of the cells to LPA (GPR23 [2]; induced cells): 2.3 fold | EC50 (GPR23 [2]; induced cells (10 μg/ml doxycycline, 16 hrs), LPA five hours): 2.3 nM | response to LPA (GPR23 [3]): < 1.5 fold | EC50 (GPR23 [4]; E1 clone): 2000 nM | EC50 (GPR23 [4]; H6 clone): 1500 nM | EC50 (T-REx™-CHO-K1; parent induced (1 μg/ml tetracycline)): 915 nM | EC50 (T-REx™-CHO-K1; parent, un-induced): 5000 nM | response to LPA [5]: positive response | EC50 (GPR23 [6]; E1 clone induced (1 μg/ml tetracycline)): 30.3 nM | EC50 (GPR23 [6]; H6 induced (1 μg/ml tetracycline)): 13.8 nM

Reference: patent US20070218456A1, “CELLULAR ASSAYS FOR SIGNALING RECEPTORS” (INVITROGEN CORPORATION, priority 2006, published 2007)
